Here are results for ten molecules from publication PMC10934055, “α-Glucosidase Inhibitory Phytochemical Components of Chinese Endemic Plant Whitfordiodendron filipes var. tomentosum” (Plants, 2024).

In test [1] the target is T1, α-Glucosidase (Saccharomyces cerevisiae, UniProt P53341).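 Further: yeast α-glucosidase premixed with inhibitor in phosphate buffer for 15 min at 37 °C, then a further 15 min reaction with p-NPG substrate.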
T1 construct: purchased Sigma (Sigma-Aldrich) G5003
The test can be described thus: biochemical. The note with it: for inhibition at 2 µg/mL / inhibition at 4 µg/mL / inhibition at 6 µg/mL / inhibition at 8 µg/mL / inhibition at 10 µg/mL: read-out: α-glucosidase inhibition rate.

In test [2] the target is α-glucosidase. Particulars: read-out: IC50 (α-glucosidase inhibitory activity), cited from earlier work.
The mark [3] stands for this setting: read-out: IC50 (α-glucosidase inhibitory bioassay), baker's yeast α-glucosidase, p-NPG, pH 6.86, 37 °C.

Where two headings read alike, the source gives them in different places.

What is called IC50 is the point on the concentration scale where inhibition reaches its midpoint. One may read the inhibition as how much of the control response was suppressed.

T1 sequence (P53341 whole entry): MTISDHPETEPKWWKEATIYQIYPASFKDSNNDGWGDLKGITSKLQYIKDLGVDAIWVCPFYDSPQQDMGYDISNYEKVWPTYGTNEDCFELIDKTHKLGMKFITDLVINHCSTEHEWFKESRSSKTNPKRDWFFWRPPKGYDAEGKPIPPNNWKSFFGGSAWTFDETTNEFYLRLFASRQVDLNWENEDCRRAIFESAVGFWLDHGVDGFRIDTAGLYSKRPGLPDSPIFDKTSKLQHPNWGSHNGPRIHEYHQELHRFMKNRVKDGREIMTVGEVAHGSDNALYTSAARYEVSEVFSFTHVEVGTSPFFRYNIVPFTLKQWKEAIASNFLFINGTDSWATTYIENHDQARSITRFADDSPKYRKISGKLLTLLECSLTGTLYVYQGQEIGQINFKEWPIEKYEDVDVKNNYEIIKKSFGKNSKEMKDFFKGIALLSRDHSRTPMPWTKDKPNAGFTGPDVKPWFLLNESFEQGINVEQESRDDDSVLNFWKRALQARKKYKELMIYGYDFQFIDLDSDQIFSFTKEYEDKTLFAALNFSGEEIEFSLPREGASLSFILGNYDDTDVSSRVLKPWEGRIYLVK

Turning to `CCC(CC[C@@H](C)[C@H]1CC[C@H]2[C@@H]3CCC4=CC(=O)CC[C@]4(C)[C@H]3CC[C@]12C)C(C)C` (stereo partly drawn) [Compound 9, (20R)-24-ethylcholest-4-en-3-one], the concentration for half-maximal inhibition (IC50) at α-Glucosidase [1] (setting [3]) is under 100 µM. Further, on α-Glucosidase [1], the inhibition at 2 µg/mL turned out to be 6.1%, the inhibition at 4 µg/mL stood at 8.3%, the inhibition at 6 µg/mL worked out at 12.2% and the inhibition at 8 µg/mL worked out at 15.6%. In addition, the inhibition at 10 µg/mL on α-Glucosidase [1] came out at 17.5%.

`CC(C)(O)[C@@H]1CC[C@]2(C)CC[C@]3(C)[C@H](CC[C@@H]4[C@@]5(C)CCC(=O)C(C)(C)[C@@H]5CC[C@]43C)[C@@H]12` [Compound 5, 20-hydroxy-lupan-3-one]: at α-Glucosidase [1], the “α-glucosidase inhibitory activity (judgement in words)” value (“α-glucosidase inhibitory activity” for short) is “inactive”. On α-Glucosidase [1] (concentration 2.0 μg·mL-1), the inhibition at 2 µg/mL turned out to be 7.2%. The inhibition at 4 µg/mL at α-Glucosidase [1] (concentration 4.0 μg·mL-1) was determined as 9.3%. In addition, at α-Glucosidase [1] (concentration 6.0 μg·mL-1), the inhibition at 6 µg/mL is 11%. The inhibition at 8 µg/mL on α-Glucosidase [1] (concentration 8.0 μg·mL-1) was 13.4%. The inhibition at 10 µg/mL on α-Glucosidase [1] (concentration 10.0 μg·mL-1) amounted to 15.8%. On α-Glucosidase [1] (setting [3]), the IC50 was under 100 µM.

Turning to `CC(C)(O)[C@@H]1CC[C@]2(C)CC[C@]3(C)[C@H](CC[C@@H]4[C@@]5(C)CC[C@H](O)C(C)(C)[C@@H]5CC[C@]43C)[C@@H]12` [Compound 3, monogynol A], the “α-glucosidase inhibitory activity” value on α-Glucosidase [1] was “inactive”. On α-Glucosidase [1] (concentration 2.0 μg·mL-1), the inhibition at 2 µg/mL stood at 2.2%. Moreover, the inhibition at 4 µg/mL at α-Glucosidase [1] (concentration 4.0 μg·mL-1) came to 3.1%. Further, at α-Glucosidase [1] (concentration 6.0 μg·mL-1), the inhibition at 6 µg/mL turned out to be 3.4%. Further, at α-Glucosidase [1] (concentration 8.0 μg·mL-1), the inhibition at 8 µg/mL turned out to be 3.4%. Further, on α-Glucosidase [1] (concentration 10.0 μg·mL-1), the inhibition at 10 µg/mL stood at 4.3%.

Regarding `CC(=O)O[C@H]1CC[C@]2(C)[C@H]3CC=C4[C@@H]5CC(C)(C)CC[C@]5(C(=O)O)CC[C@@]4(C)[C@]3(C)CC[C@H]2C1(C)C` [Compound 1, 3-acetyloleanolic acid], at α-Glucosidase [1], the “α-glucosidase inhibitory activity” value is “significant inhibitory activities”, the inhibition at 2 µg/mL was found to be 10.1%, the inhibition at 4 µg/mL amounted to 24.3% and the inhibition at 6 µg/mL came to 38.2%. In addition, at α-Glucosidase [1], the inhibition at 8 µg/mL amounted to 48.3% and the inhibition at 10 µg/mL was 56.5%. Also, the IC50 at α-Glucosidase [1] (baker's yeast α-glucosidase, p-NPG, pH 6.86, 37 °C, read-out: IC50 (α-glucosidase inhibitory bioassay)) was 16.8 ± 0.23 µM. Moreover, the half-inhibitory concentration (IC50) at α-glucosidase [2] (compounds isolated from Coffea canephora) is 146.9 ± 1.2 µM.

As for `C[C@H]1O[C@H](O[C@H]2[C@H](O)[C@@H](O)[C@@H](O[C@H]3[C@H](O)[C@@H](O)C(O)O[C@@H]3CO)O[C@@H]2CO)[C@H](O)[C@@H](O)[C@@H]1N[C@H]1C=C(CO)[C@@H](O)[C@H](O)[C@H]1O` (stereo partly shown) [acarbose, reference compound], at α-Glucosidase [1], the inhibition at 2 µg/mL stood at 11.1%, the inhibition at 4 µg/mL was 25.3%, the inhibition at 6 µg/mL stood at 37.9% and the inhibition at 8 µg/mL stood at 52.4%. In addition, the inhibition at 10 µg/mL at α-Glucosidase [1] was found to be 65.7%.

Turning to `CC(=O)O[C@H]1CC[C@]2(C)[C@H]3CC[C@@H]4[C@@H]([C@@](C)(O)CCC=C(C)C)CC[C@@]4(C)[C@]3(C)CC[C@H]2C1(C)C` [Compound 8, dammar-24-ene-3β-acetoxy-20S-ol], the inhibition at 2 µg/mL on α-Glucosidase [1] (concentration 2.0 μg·mL-1) is 3.7%. In addition, the inhibition at 4 µg/mL on α-Glucosidase [1] (concentration 4.0 μg·mL-1) was 6.2%. Moreover, the inhibition at 6 µg/mL on α-Glucosidase [1] (concentration 6.0 μg·mL-1) amounted to 8.1%. For the same molecule, the inhibition at 8 µg/mL on α-Glucosidase [1] (concentration 8.0 μg·mL-1) worked out at 10.2%. The inhibition at 10 µg/mL on α-Glucosidase [1] (concentration 10.0 μg·mL-1) was 11.1%. The half-maximal inhibitory concentration (IC50) on α-Glucosidase [1] (setting [3]) was under 100 µM.

As to `C=C(C)[C@@H]1CC[C@]2(C(=O)O)CC[C@]3(C)[C@H](CC[C@@H]4[C@@]5(C)CCC(=O)C(C)(C)[C@@H]5CC[C@]43C)[C@@H]12` [Compound 6, betulonic acid], at α-Glucosidase [1], the IC50 was found to be 17.2 ± 0.27 µM and the “α-glucosidase inhibitory activity” value is given as “significant inhibitory activities”. Besides, on α-Glucosidase [1] (concentration 2.0 μg·mL-1), the inhibition at 2 µg/mL is 10.1%. In addition, on α-Glucosidase [1] (concentration 4.0 μg·mL-1), the inhibition at 4 µg/mL amounted to 24.3%. Moreover, the inhibition at 6 µg/mL on α-Glucosidase [1] (concentration 6.0 μg·mL-1) turned out to be 38.2%. Also, the inhibition at 8 µg/mL at α-Glucosidase [1] (concentration 8.0 μg·mL-1) is 51.7%. Also, the inhibition at 10 µg/mL on α-Glucosidase [1] (concentration 10.0 μg·mL-1) turned out to be 60.5%. Further, the IC50 on α-glucosidase [2] (compound isolated from Buddleja saligna) is 60.1 µM.

Regarding `CC[C@H](/C=C/[C@@H](C)[C@H]1CC[C@H]2[C@@H]3CC=C4C[C@@H](O)CC[C@]4(C)[C@H]3CC[C@]12C)C(C)C` [Compound 10, stigmasterol], at α-Glucosidase [1] (setting [3]), the IC50 was under 100 µM. At α-Glucosidase [1], the inhibition at 2 µg/mL came out at 2.4%, the inhibition at 4 µg/mL turned out to be 4.3%, the inhibition at 6 µg/mL turned out to be 7.1% and the inhibition at 8 µg/mL came out at 9.6%. Besides, the inhibition at 10 µg/mL at α-Glucosidase [1] is 10.1%.

As for `C=C(C)[C@@H]1CC[C@]2(C)CC[C@]3(C)[C@H](CC[C@@H]4[C@@]5(C)CC[C@H](O)C(C)(C)[C@@H]5CC[C@]43C)[C@@H]12` [Compound 4, lupeol], on α-Glucosidase [1], the concentration for half-maximal inhibition (IC50) turned out to be 19.2 ± 0.17 µM and the “α-glucosidase inhibitory activity” value is listed as “significant inhibitory activities”. Besides, the inhibition at 2 µg/mL on α-Glucosidase [1] (concentration 2.0 μg·mL-1) was found to be 12.5%. Besides, the inhibition at 4 µg/mL on α-Glucosidase [1] (concentration 4.0 μg·mL-1) is 25.1%. The inhibition at 6 µg/mL at α-Glucosidase [1] (concentration 6.0 μg·mL-1) was found to be 38.6%. Besides, the inhibition at 8 µg/mL at α-Glucosidase [1] (concentration 8.0 μg·mL-1) turned out to be 49.2%. Besides, the inhibition at 10 µg/mL on α-Glucosidase [1] (concentration 10.0 μg·mL-1) amounted to 58.4%. At α-glucosidase [2] (compound isolated from Sabia parviflora), the IC50 is 452 ± 5.3 µM.

As to `CC1(C)CC[C@]2(C(=O)O)CC[C@]3(C)C(=CC[C@@H]4[C@@]5(C)CC[C@H](O)C(C)(C)[C@@H]5CC[C@]43C)[C@@H]2C1` [Compound 2, oleanolic acid], at α-Glucosidase [1], the “α-glucosidase inhibitory activity” value is on record as “significant inhibitory activities”, the inhibition at 4 µg/mL was 27.8%, the inhibition at 6 µg/mL is 39.9% and the inhibition at 10 µg/mL is 61.5%.
